Square brackets hold non-standard residues; d marks the D form. Peptide text beside a SMILES is read from it. Orn = NCCC[C@H](N)C(=O)O
Key:
[1] = test system: IL-1β, TNFα, MCP-1, KC, MMP-3; test: ELISA of pro-inflammatory molecules in ankle extracts; assay type: in vivo, mouse; set-up: IL-1β / TNFα / MCP-1 / KC / MMP-3: unit not given here; conditions: ankle joints, seven days post-serum transfer; mean ± standard error
Protocol: (§1) At each time point and prior to euthanasia, the degree of arthritis as indicated by joint swelling was quantitated by measuring two perpendicular diameters of the ankles using a caliper (Lange Caliper: Cambridge Scientific Industries, Cambridge Mass.). Joint circumference was calculated using the geometric formula of ellipse circumference (2πX √(a^2+b^2)/2). Following euthanasia, serum was isolated from peripheral blood by cardiac stick and ankle joints were removed. One of the ankle joints was fixed in 10% neutral buffered formalin for 24 hours, decalcified in EDTA-decalcification buffer for two weeks, embedded in paraffin, and sectioned. The other ankle joint was placed in liquid nitrogen, grounded into a fine powder by mortal and pestle, digested in protein lysis buffer ([…], 0.5% NP-40, 50 mM Tris, and 2 mM EDTA) in the presence of phosphatase and protease inhibitors, and homogenized on ice for 20 seconds. To examine any toxicity due to systemic delivery of TAT-Bim peptides, alkaline phosphatase (ALP), […] (AST), alanine aminotransferase (ALT), and blood urea nitrogen levels were measured.
For detection of mouse IL-1β, TNFα, MCP-1, KC, or MMP-3 in ankle extracts, sandwich ELISAs were performed according to the manufacturer's instructions (R & D Systems, Minneapolis, Minn.). The sensitivity for all cytokines was 15.6 pg/mL for IL-1β and KC, 7.813 pg/mL for TNFα and MCP-1, and 0.312 ng/mL for MMP3. ELISAs were quantitated by absorbance at 450 nm on a microplate reader (BioRad, Hercules, Calif.). Data obtained using ELISA on ankle extracts were normalized by the total protein concentration (μg/μL) for each individual ankle extract.
Mice were euthanized at seven days post-serum transfer. Ankle joints from each mouse were isolated, snap frozen, grounded into a fine powder, lysed, and examined for IL-1β, TNFα, MCP-1, KC, and MMP-3 production using an ELISA. Data are shown as μg/μL per joint. Values represent the mean±standard error, which were compared by Student's t-test.

IL-1β, TNFα, MCP-1, KC = test: Circulating cytokine levels in serum; assay type: in vivo, mice; conditions: between saline, TAT-inactive BH3 and TAT-BH3 groups
Protocol: as §1
TAT-BH3 peptides treatment reduces the numbers of myeloid cells in arthritic joints. […] To this end, the numbers of polymorphonuclear cell and macrophages in saline and BH3 peptide arthritic mice were quantified. […]

[2] = test system: K/B×N serum transfer-induced arthritis; test: Histopathological scoring of ankle sections (H&E, safranin O/methyl green); assay type: in vivo, mice; conditions: saline vs TAT-inactive BH3
Protocol: (§2) Paraffin embedded ankle or liver sections were stained with hematoxylin and eosin (H&E), Safranin O and methyl green. Histopathological scoring was performed and ankle sections were evaluated by examining at least 3 sections/ankle and 3 fields/section at 400× magnification. H&E ankle sections were scored on a 0-5 scale for inflammation, with 0=normal, 1=minimal infiltration, 2=mild infiltration, 3=moderate infiltration, […], mad 5=severe infiltration. Bone erosion was scored on a 0-5 scale by viewing H&E ankle sections, with 0=no or normal bone resorption, 1=small areas of resorption, 2=more numerous areas of resorption, 3=obvious resorption, 4=full thickness defects in the bone without distortion of the profile, 5=full thickness defects in the bone with distortion of the profile. H&E ankle stained sections were scored on a 0-5 scale for pannus formation, with 0=no pannus formation, 1=minimal pannus formation, 2=mild pannus formation, 3=moderate pannus formation, 4=marked pannus formation, and 5=severe pannus formation. H&E and Safranin 0 and methyl green sections were scored on a 0-5 scale for cartilage damage, with 0=no damage, 1-2=superficial cartilage destruction, 3-4=cartilage destruction to middle zone, 5=cartilage destruction to tide mark. Polymorphonuclear (PMN) leukocyte infiltration: 0=no PMNs, 1=rare scattered PMNs, 2=more frequent scattered PMNs, 3=small clusters of PMNs, 4=larger clusters of PMNs, mad 5=sheets of PMNs (abscess). Histopathological scoring was conducted on an Olympus BX40 microscope (1000×). Photographs were taken on a Nikon microscope equipped with the Nikon digital camera DMX 1200.
To accurately assess the degree of inflammation and destruction of cartilage and bone, ankle sections were examined using a histopathological scoring system on hematoxylin and eosin (H& E) or safranin O-methyl green stained ankle sections.

[3] = Toxicity: serum ALP, AST, ALT, blood urea nitrogen and liver histology in arthritic mice; assay type: in vivo; conditions: liver sections of arthritic mice
Protocol: as §1, §2

[4] = test system: K/B×N serum transfer-induced arthritis; test: K/B×N serum transfer-induced arthritis, ankle circumference (joint swelling); assay type: in vivo, mice
From the text: The seven-week-old progeny from homozygous KRN TCR transgenic mice (C57BL/6 background) crossed with non-obese diabetes (NOD) mice (K/B×N) were euthanized, peripheral blood was isolated, and serum were collected and pooled. One hundred and fifty microliters of K/B×N serum were intraperitoneally injected on each flank of 6-week old wt mice.
as §1
Therefore, peptides to the BH3 domain of Bim were used that are fused to polycationic peptide derived from HIV-1 TAT. These peptides have shown to activate Bak and Bax, suppress Bcl-2 and Mcl-1, induce mitochondrial permeability, and release mitochondrial cytochrome c. Mice were intraperitoneally injected with K/B×N serum to induce the effector phase of inflammatory arthritis.

peripheral blood cells = test: Peripheral blood cell counts (flow cytometry, hematology analyzer); assay type: in vivo, mice; conditions: peripheral blood, mean ± standard error
Protocol: Peripheral blood and bone marrow were isolated from mice following euthanasia. Total leukocyte numbers were determined using an automated hematology analyzer ABX Pentra 60 (Diamond Diagnostics, Inc, Holliston, Mass.). The red blood cells in peripheral blood were lysed and the remaining cells were fixed with BD FACS lysing solution (BD Biosciences, Pharmingen) following incubation with antibodies. Bone marrow cells were isolated by flushing Dulbecco's Modified Eagle Medium (DMEM) (Gibco, Grand Island, N.Y.) through the tibias and red blood cells were lysed with BD PharM Lyse (BD Biosciences, Pharmingen) prior to incubation with antibodies. Cells with incubated with Fc Block (BD Biosciences, Pharmingen) then stained with fluorochrome conjugated antibodies to CD45, CD11b, Gr-1, CD62L, Ly-6C, Ly-6G, CD31 (BD Biosciences, Pharmingen) or isotype control antibodies for 30 minutes. Cells were acquired on a BD LSRII (BD Biosciences, Pharmingen) using Diva Software at the Saint Louis University Core Flow Cytometry Facility. All analysis was performed using FlowJo software (Tree Star Inc.).
Peripheral blood was isolated by cardiac sticks. Cells were blocked for 10 minutes with Fc block and then stained with anti-CD45, anti-CD19, anti-CD3, anti-CD4, anti-CDS, anti-CD11b, anti-Gr-1, and anti-CD62L antibodies for 30 minutes. Platelets and RBCs were determined on an automated hematology analyzer ABX Pentra 60. Following incubation with antibodies red blood cells were lysed and cells were fixed with Becton Dickenson FACS lysing solution.

[5] = test system: cells that express high levels of Mcl-1; conditions: literature statement; cited from earlier work
platelets = conditions: literature statement; cited from earlier work

CC[C@H](C)[C@H](NC(=O)[C@H](CCCNC(=N)N)NC(=O)[C@H](CCCNC(=N)N)NC(=O)[C@H](C)NC(=O)[C@H](CCC(=O)O)NC(=O)[C@H](CCC(N)=O)NC(=O)[C@H](C)NC(=O)[C@@H](NC(=O)[C@H](Cc1c[nH]c2ccccc12)NC(=O)[C@@H](NC(=O)[C@H](CCC(=O)O)NC(=O)[C@H](CCCNC(=N)N)NC(=O)[C@H](CCCNC(=N)N)NC(=O)[C@H](CCCNC(=N)N)NC(=O)[C@H](CCCN)NC(=O)[C@H](CCCNC(=N)N)NC(=O)[C@H](CCCNC(=N)N)NC(=O)[C@H](CCCCN)NC(=O)[C@H](CCCCN)NC(=O)[C@H](CCCNC(=N)N)NC(C)=O)[C@@H](C)CC)[C@@H](C)CC)C(=O)NCC(=O)N[C@@H](C)C(=O)N[C@@H](CCC(=O)O)C(=O)N[C@@H](Cc1ccccc1)C(=O)N[C@@H](CC(N)=O)C(=O)N[C@@H](C)C(=O)N[C@@H](Cc1ccc(O)cc1)C(=O)N[C@@H](Cc1ccc(O)cc1)C(=O)N[C@@H](C)C(=O)N[C@@H](CCCNC(=N)N)C(=O)O [reference compound] (Ac-RKKRR[Orn]RRREIWIAQEARRIGAEFNAYYAR-OH) showed an IL-1β [1] of 824 ± 103, a KC [1] of 428 ± 45 and an MCP-1 [1] of 196 ± 17. The MMP-3 [1] was 17 ± 4, the TNFα [1] was 4.4 ± 0.3 and the “circulating levels of IL-1β, TNFα, MCP-1, and KC in serum” value (IL-1β, TNFα, MCP-1, KC) was “no differences”. The “difference in histological scores versus saline” value [2] was “no statistical difference”, the liver histology [3] was “no gross histologic abnormalities” and the “change in ankle circumference” value ([4]; day 2 after K/B×N serum, 2 mg/kg i.p.) was 1.6 mm. For the same compound, the “difference in arthritis (ankle circumference) versus saline” value ([4]; saline vs TAT-inactive BH3) was “no statistical difference”, the Platelets (peripheral blood cells; hematology analyzer) was 1305.75 ± 70.03 (1E6) and the RBCs (peripheral blood cells; hematology analyzer) was 9.84 ± 0.22 (1E6). For the same compound, the “B-cells+” value (peripheral blood cells) was 2.38 ± 0.21 (1E6), the “CD4+ T-cells” value (peripheral blood cells) was 1.15 ± 0.10 (1E6) and the “CD8+ T-cells” value (peripheral blood cells) was 0.72 ± 0.06 (1E6). For the same compound, the Inflammatory monocytes (peripheral blood cells) was 0.25 ± 0.03 (1E6), the N-K-cells (peripheral blood cells) was 0.19 ± 0.13 (1E6) and the “Resident Monocytes” value (peripheral blood cells) was 0.14 ± 0.01 (1E6). For the same compound, the T-cells (peripheral blood cells) was 1.94 ± 0.17 (1E6) and the “Total Leukocytes” value (peripheral blood cells) was 6.1 ± 0.18 (1E6).
In the case of CN(C)CC[C@H](CSc1ccccc1)Nc1ccc(S(=O)(=O)NC(=O)c2ccc(N3CCN(Cc4ccccc4-c4ccc(Cl)cc4)CC3)cc2)cc1[N+](=O)[O-] [ABT-737], the “effect on cells that express high levels of Mcl-1” value [5] is listed as “no effect” and the “effect on platelet numbers” value (platelets) is listed as “dramatic effect”.
